{"source": "ChEMBL document CHEMBL3792380", "about": "“A sub-milligram-synthesis protocol for in vitro screening of HDAC11 inhibitors” (Bioorg Med Chem Lett, 2016)", "target": "T1, Histone deacetylase 11 (Homo sapiens, UniProt Q96DB2)", "T1 sequence (Q96DB2 whole entry)": "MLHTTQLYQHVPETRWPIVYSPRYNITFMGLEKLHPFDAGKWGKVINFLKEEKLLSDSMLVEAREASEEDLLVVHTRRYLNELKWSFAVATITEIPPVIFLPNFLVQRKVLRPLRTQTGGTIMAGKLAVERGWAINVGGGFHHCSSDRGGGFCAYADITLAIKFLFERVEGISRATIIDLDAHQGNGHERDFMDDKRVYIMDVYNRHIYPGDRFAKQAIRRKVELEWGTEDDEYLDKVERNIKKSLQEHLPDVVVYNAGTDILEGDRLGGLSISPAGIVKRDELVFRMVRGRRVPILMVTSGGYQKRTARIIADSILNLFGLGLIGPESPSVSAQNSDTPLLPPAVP", "assay": "Inhibition of His-tagged human HDAC11 expressed in Sf9 cells using Ac-Arg-Gly-Lys(Ac)-AMC as substrate by fluorometric assay"}
{"compound": "O=C(/C=C/c1cn([C@H]2C[C@@H](CO)N(Cc3ccccc3)C2)nn1)NO", "values": [{"measurement": "IC50", "value": 1.2, "unit": "µM"}]}
